Assay results as given in PMC5067331, “Large Gliadin Peptides Detected in the Pancreas of NOD and Healthy Mice following Oral Administration” (Journal of Diabetes Research, 2016).
“Also recorded” adds a separate entry of the source. Read-outs that look alike come from different tables or passages of the source. Ends that are not written are not given here.

Tests used:
[1] = MALDI-TOF MS of 33-mer fragments in plasma and pancreas after oral administration; settings: for Sample in which the 33-mer fragment was found: mice 6–20 weeks, 500–900 μg 33-mer p.o., plasma and pancreas 45–60 min after administration, sequence assigned by mass match
Experimental: Plasma was fractionated in Amicon Ultra 10 kDa centrifugal filter units (Merck Millipore), Vivaspin 500, 5 kDa filter units (Sartorius), PD10 columns, Amicon Ultra 0.5 mL 10 kDa centrifugal filters, or SEP-PAK C18 Plus short cartridges (Waters), or they were ethanol-precipitated or acid-ethanol extracted. Slices from nonfixed gels were extracted overnight at 37°C in 100 μL of 50 mM NH4CO3 with or without 12.5 ng/μL Endoproteinase Glu-C Sequencing Grade (Roche Diagnostics). The gel slices were further extracted on a shaker for 15 min in 20 μL extraction buffer (1 : 2 (vol/vol) 50 mM NH4HCO3/acetonitrile). The extracts were combined.
Samples were dried in a vacuum concentrator (Eppendorf 5301) and reconstituted in 20 μL 5% acetic acid before desalting using POROS C18 matrix and elution onto a stainless steel 96-well MALDI target plate with 1 μL α-cyano-4-hydroxycinnamic acid (HCCA matrix) ready-made from Agilent (6 mg/mL in 30% acetonitrile, 30% methanol, and 0.1% TFA) for dried droplet crystallization. Analysis was done on Bruker Ultraflex with Daltonics flexAnalysis software, externally calibrated using a standard peptide mixture (Bruker, range: 1,000–3,200 Da). Spectra were recorded in positive linear mode and summed from 100 laser shots.
The MS mass of 84 fragments >800 Da was calculated. They were randomly generated from the 33-mer sequence, allowing for deamidation of up to two glutamine residues (only one deamidation for Mr <1500 Da) and for sodium and potassium ion adduct formation. Measured masses were matched to the predicted masses, using a difference of <0.5 Da as threshold. Masses from negative control samples were matched using a threshold of 1.0 and removed.

[2] = MALDI-TOF MS of fragments formed in vitro during incubation of 33-mer in mouse plasma; type: in vitro ADME; settings: 33-mer in mouse plasma at 37°C, 5 kDa MWCO filtrate or SDS-PAGE gel slice, sequence assigned by mass match
Description: The extracts were combined.

digestive proteases = settings: cited from earlier work
[3] = mouse, in vivo, po
Experimental: (§2) For initial evaluation of accumulation and elimination in blood, NOD mice (6–8 weeks) received 230–900 μCi ^3H-33-mer or ^3H-19-mer. […] Organs were incubated with SOLVABLE (Perkin-Elmer) at 55°C until dissolved and then with 30% hydrogen peroxide to decolorize the solution. Ultima Gold (Perkin Elmer) was added, and samples were counted 1 h later in a Packard 1600TR scintillation counter.
(§3) Specific activities (dpm/mg tissue) were calculated by dividing the counts by the respective weight of the sample that was measured. The tissue distribution was examined using the tissue/blood ratios. To compare responses in blood across different doses (230–900 μCi), data were normalized to a dosage of 100 μCi.
(§4) Before oral gavage, mice were starved for 4 h and were not fed until 20 min after.
(§5) One-way ANOVA with Tukey posttest was carried out using GraphPad Prism version 5.00 for Windows (GraphPad Software, San Diego, California, USA) to analyze the distribution of the label at each time point. The stomach and intestine were excluded from the analysis due to their large variation.

[4] = Autoradiography of mouse tissues; settings: 1 h after oral administration
Experimental: (§6) Standard tissue sections were dipped in a 1 : 1 dilution in water of melted Kodak NTB Emulsion with 10% Amplify Fluorographic Reagent (GE Healthcare), air-dried, stored in the dark at 4°C with desiccant for 1–3 weeks, developed in Kodak D19 developer, fixed in Ilford Rapid Fixer, HE stained, and examined in an Olympus Bx51 microscope (UPlanSApo 20x, 0.40) equipped with a Colorview 1 camera and Analysis getIT software (Olympus).

[5] = mouse, in vivo
Experimental: as §6

[6] = In vitro incubation of 33-mer in blood plasma, SDS-PAGE and fluorography; type: in vitro ADME, C57BL/6 mouse; settings: C57BL/6 plasma with 33-mer 28.6 ng/µl, 0-4 h
Description: (§1) Supplementary file 2424306.f1.docx: Fig Supp 1. […] Abbreviations are as in Fig 1.Fig Supp 2. […] CT: control 33-mer/19-mer. […] CT is control 33-mer. […] CT is control 33-mer.

trypsin = test: Trypsin digestion of plasma/serum followed by SDS-PAGE and fluorography; type: in vitro ADME; settings: serum; dithiothreitol/SDS at 53°C pH 7.5 45 min, then trypsin at 37°C
Description: as §1

albumin and IgG = test: Depletion of albumin and IgG from plasma, radioactivity in gel slices; type: in vivo, mouse
Description: as §1

[7] = mouse, in vivo; remark: listed apart in the source
Experimental: Heparin-plasma was prepared from tail blood at 0°C and analysed by SDS-PAGE without further processing, after depletion of albumin and IgG using a commercial kit (Protea Biosciences) or after digestion with trypsin (incubation with 125 mM dithiothreitol, 0.05% SDS at 53°C, pH 7.5 for 45 min, followed by digestion with trypsin (Fluka) at 37°C). The gel was fixed in 15% formalin/25% ethanol and Coomassie-stained. For fluorography, the fixed gels were soaked in 7% glycerol and Amplify Fluorographic Reagent (GE Healthcare), each for 30 min, dried, and exposed on Amersham Hyperfilm MP at −80°C. Subsequently, the dried gels were rehydrated in 7% acetic acid for 2–4 h and Coomassie-stained.
For scintillation counting, gel slices were excised from the nonfixed gel, covered with 600 μL of 30% hydrogen peroxide, and heated at 50°C overnight before measurement.
For kinetics studies, using SDS-PAGE and fluorography, 230 μCi ^3H-33-mer or 770 μCi of ^3H-19-mer was used for i.v. administration and 620–1200 μCi ^3H-33-mer was used for oral administration to NOD mice aged 6–8 weeks.
Blood and organs were sampled after 1, 24 and 72 h. […] Kinetics of 3H-33-mer and 3H-19-mer in mouse blood following i.v. and p.o. administration. 3H-33-mer (A) or 3H-19-mer (B) was given i.v. to NOD mice (6-8 weeks). Tail blood was analyzed by SDS-PAGE and fluorography at the indicated time points (min). CT: control 33-mer/19-mer. In (A, right), 660 µg of unlabeled 33-mer was injected prior to the labeled peptide. (C) 3H-33-mer was administered p.o. to NOD mice (6-8 weeks). Blood was analyzed after 0.5, 1 and 20 h. All lanes were loaded with the same amount of radioactivity. CT is control 33-mer. (D) Fluorogram of in vitro incubation of blood plasma from a C57BL/6 mouse with 33-mer (28.6 ng/µl or 222.000 dpm/µl) for 0-4 h. CT is control 33-mer. (E) Plasma from mice, that had received 3H-labelled 33-mer one hour earlier by i.v. or p.o. administration, was depleted of albumin and IgG. […] Data were normalized between lanes to contain identical amounts of radioactivity outside the albumin/IgG region. […]

[8] = LC-MS detection of 33-mer in plasma; type: in vivo, BALB/c mice; settings: BALB/c, methanol-TFA precipitation
Experimental: BALB/c mice, 4–16 weeks of age, were given 650–900 μg of 33-mer, either i.v. or p.o., and heparin-plasma was prepared 15–60 min later at 0°C. Protein inhibitors were added to the tissues that were homogenized, mixed with internal standard (GENESEQP:AZF58701), and precipitated with 50% methanol, 1% TFA, and centrifugation. The samples were analyzed using an Orbitrap XL (Thermo Scientific) equipped with a Nano LC (Easy nLC II, Thermo Scientific). The chromatographic system was a 10 cm, ID 75 μm, 3 μm C18-A2 column (Thermo Scientific) with a flow of 300 nL/min with 0.1% formic acid as mobile phase A and 0.1% formic acid in acetonitrile as B. The MS scan was performed using a resolution of 30000 and a scan range of 300–2000 m/z.

[9] = Biodistribution of 3H label after oral administration (scintillation counting, tissue/blood ratio); settings: NOD mice, shortly after administration (Figure 1(a)), 0.01 < p < 0.05, N = 2–4 mice
Experimental: as §2, §3, §4, §5

[10] = SDS-PAGE and fluorography of blood after i.v. or p.o. administration; settings: mice, data not shown

Sample in which the 33-mer fragment was found [1] | Compound | Sample (filtrate or gel slice range) in which the fragment was found [2] | also measured
Pancreas, C57BL/6 | LQLQPFPQPE | – | –
Plasma, C57BL/6 | FPQPELPY | – | –
Plasma, NOD | QLQPFPQPELP | – | –
Pancreas C57BL/6 | QPFPQPELPY [33-mer fragment assigned by MALDI-TOF MS mass match] | Filtrate | –
Pancreas, C57BL/6 | QLQPFPQPEL | – | –
Plasma, NOD pancreas, C57BL/6 | ELPYPQPELP | – | –
Plasma, NOD | YPQPQPF [33-mer fragment assigned by MALDI-TOF MS mass match] | Filtrate | –
Plasma, NOD | QPFPQPELP | – | –
Plasma, C57BL/6 | LQLQPFPQPELPYPQPELPYPQPELPYPQPQP | 4–6 kDa | Stability as originally described (digestive proteases): stable

Further lines, the compound ahead of its results:

Compound | Sample in which the 33-mer fragment was found [1] | Sample (filtrate or gel slice range) in which the fragment was found [2] | also measured
ELPYPQPQPF | Plasma, NOD | – | –
ELPYPQPELPYPQPELPY [33-mer fragment formed in mouse plasma in vitro, MALDI-TOF MS mass match] | – | Filtrate | –
H-LGQQQPFPPQQPYPQPQPF-OHY [19-mer] | – | – | Resistance to digestive proteases (digestive proteases): resistant to digestive proteases; Absorption from the intestine [3]: readily absorbed from the intestine; Level of label in the pancreas relative to blood [3]: high level of label; Presence of label at early time points [3]: present 1/2 h after administration and still remained 3 hours after oral administration
LQLQPFPQPELPYPQPE [33-mer fragment assigned by MALDI-TOF MS mass match] | Plasma, NOD | 4–6 kDa | –
YPQPELPYPQPQPF [33-mer fragment assigned by MALDI-TOF MS mass match] | Plasma, NOD, C57BL/6 | Filtrate | –
ELPYPQPELPYPQPELPYPQPQPF [33-mer fragment formed in mouse plasma in vitro, MALDI-TOF MS mass match] | – | 14–18 kDa | –
LQLQPFPQPELPYPQPELPYPQPELPYPQP [33-mer fragment formed in mouse plasma in vitro, MALDI-TOF MS mass match] | – | 14–18 kDa | –
QLQPFPQPELPYPQPELPYPQPELPYPQPQP [33-mer fragment formed in mouse plasma in vitro, MALDI-TOF MS mass match] | – | 14–17 kDa | –
LPYPQPELPYPQPQPF | Pancreas, NOD, C57BL/6 | – | –
QPFPQPELPYPQPELPYPQPELPYPQPQP | Plasma, NOD, C57BL/6 | – | –
FPQPELPYPQPELPYPQPELPYPQPQPF [33-mer fragment formed in mouse plasma in vitro, MALDI-TOF MS mass match] | – | 10–12 kDa | –
ELPYPQPELPYPQ | Plasma, NOD | – | –
QPFPQPELPYPQPELPYPQPELPYPQPQ | Plasma, NOD, C57BL/6 | – | –
QPFPQPELPYPQPELPYPQPELPYPQPQPF [33-mer fragment formed in mouse plasma in vitro, MALDI-TOF MS mass match] | – | 14–18 kDa | –
LQLQPFPQPELPYPQPELPYPQPELPYP | Plasma, NOD, C57BL/6 | – | –
H-LQLQPFPQPELPYPQPELPYPQPELPYPQPQPF-OHY [33-mer] | – | 4–6 kDa, 6–9 kDa, 14–17 kDa | Longest peptide detected in blood ([1]; after oral 33-mer): 32-mer; Label in zymogen granules of the pancreas [4]: high accumulation of label; Label in all other tissues examined ([4]; lung, kidney, ileum): homogenous labeling was observed; Difference between i.v. and p.o. administration in autoradiography [5]: No difference was seen; Formation of 12 kDa and HMW signals in vitro [6]: the 12 kDa signal, but not the HMW signal, also formed in vitro; Degradation by trypsin (trypsin): degrades albumin, but not 33-mer; Label removed by depletion of albumin and IgG (albumin and IgG; 3H-33-mer added to blood in vitro, or cold peptide injected prior to labeled peptide): 14-15%; Label removed by depletion of albumin and IgG (albumin and IgG; blood of mice that had received 33-mer, regardless of route, plasma 1 h after administration): 35%; Emergence of higher molecular weight species (HMW) in blood after injection ([7]; iv): After 1 h, higher molecular weight species (HMW) emerged; 33-mer signal in blood after oral administration ([7]; po): still present in the blood, although in low amounts; Intact peptide in plasma after oral administration ([8]; 650 µg p.o., 60 min): detected intact peptide; also recorded: close to the detection limit, and the peptide was not detected in all mice; Intact peptide in plasma after intravenous administration ([8]; 850 µg i.v., 15, 30 and 60 min): detected intact peptide; Resistance to digestive proteases (digestive proteases): resistant to digestive proteases; Absorption from the intestine [3]: readily absorbed from the intestine; Level of label in the pancreas relative to blood [3]: high level of label; Presence of label at early time points [3]: present 1/2 h after administration and still remained 3 hours after oral administration
N[C@@H](Cc1ccc(O)cc1)C(=O)O [3H-tyrosine, tyrosine] | – | – | Level of label in the pancreas relative to blood [9]: accumulated similarly to the 33- and 19-mer; HMW band after injection [10]: appearance of the HMW band
ELPYPQPELPYP | Plasma, NOD pancreas, NOD | – | –
ELPYPQPELPYPQPEL [33-mer fragment formed in mouse plasma in vitro, MALDI-TOF MS mass match] | – | Filtrate | –
ELPYPQPEL [33-mer fragment formed in mouse plasma in vitro, MALDI-TOF MS mass match] | – | Filtrate | –
LQPFPQPELPYPQPELPYPQPELPYPQPQ | Plasma, NOD, C57BL/6 | – | –
PFPQPELPYPQPELPYPQPELPYPQPQPF [33-mer fragment formed in mouse plasma in vitro, MALDI-TOF MS mass match] | – | 10–12 kDa | –
LQLQPFPQPELPYPQPELPYPQPELPYPQPQ [33-mer fragment formed in mouse plasma in vitro, MALDI-TOF MS mass match] | – | 14–17 kDa | –
